Entries after “also recorded” stand apart in the source; their conditions may differ. Structures can show the parent of a compound that is named as a salt. Where two headings read alike, the source gives them in different places.
Assays:
Raf-1^gof TSCs = assay: Visualization of Raf-1^gof tumors in dissected guts by esg-GFP and Delta staining; type: in vivo, Drosophila
Description: Samples were incubated 1 hour in 5% NDS blocking solution, overnight in primary antibody, 1.5 hours in secondary antibody and 6 minutes in DAPI. They were rinsed and washed between steps in PBS containing 0.1% Triton X-100. Finally they were placed in mounting media (Vectashield) and mounted for microscopy. Images were taken with a Leica TCS SP2 confocal microscope.
(§1) Primary screening drugs were provided by the Harvard Institute for Chemistry and Cell Biology (ICCB; 480 known bioactives library), and the National Cancer Institute (NCI) Drug Therapeutics Program (library of 88 FDA-approved oncology drugs). Secondary assays were conducted with freshly prepared 10 mM stocks that were diluted 1:100 in fly food, giving a final concentration of 100 μM.
(§2) Drugs were dissolved in 100% DMSO. Drugs were mixed 1:100 with molten fly food at 37° C. and then aliquoted to either 5 mL tubes or 1 mL wells of a 96-well plate.
Control flies were treated with DMSO.
Flies were treated with DMSO alone as a control.

[1] = test system: Raf-1^gof intestinal tumors; conditions: for Fold: luciferase relative to DMSO, fed three consecutive days in vials; for Log2 (fold) (luciferase activity, log2 of the fold difference relative to DMSO controls) / Fold (luciferase activity, fold difference relative to DMSO controls): screen of 480 ICCB compounds in vials, compounds fed to flies with one-day old Raf-1^gof tumors, esg-Gal4 luciferase
[2] = test system: Raf-1^gof intestinal tumors; assay: Luciferase screen of FDA-approved (NCI) drugs in 96-well plates, flies with Raf-1^gof intestinal tumors; type: in vivo, Drosophila; conditions: for Avg (3 + 6): average of Day 3 and Day 6 fold; for Log2 (fold): log2 of the Day 3 fold difference in luciferase relative to DMSO controls; for Day 3 Fold: luciferase activity relative to DMSO controls, single dose of drug for three days, 96-well plates; for Day 6 Fold: six-day protocol: single dose for three days, then another dose for three more days
ISCs/EBs = assay: Drug-induced ISC/EB expansion in animals with loss-of-function JAK allele hop^msv1; type: in vivo, Drosophila; conditions: loss-of-function JAK allele hop^msv1 vs wild type
Description: FIG. 7. FDA anti-cancer drugs that block TSCs can have differential effects on the microenvironment and growth of wild-type ISCs. […] Flies were treated with DMSO alone as a control. […]. […] C) The expansion of ISCs/EBs in response to bortezomib and paclitaxel is less severe in animals with a loss-of-function JAK allele, hop^msv1.
Controls: yw,yv;attP2 (Ni et al., 2008). Gal4 drivers and reporters: esg-Gal4,UAS-GFP,tub-Gal80^ts (Micchelli et al., 2006), UAS-luc2(luciferase at attP2) (Markstein et al., 2008), puc-lacZE69 (Ring et al., 1993), #42685}, upd3-Gal4 (Agaisse et al., 2003). UAS constructs: UAS-Raf-1^gof (Brand et al., 1994), UAS-raptor-RNAi (TRIP stock JF01088), UAS-Dsor-RNAi (TRIP stock JF01697), UAS-Akt-RNAi (TRIP stock HMS00007). UAS-NotchDN (Jacobsen 1998). Mutants: hop^msv1 (Perrimon et al., 1986). Using the above stocks, an esg-Gal4 stock was created with both an inducible GFP reporter and an inducible Luciferase reporter: esg-Gal4,UAS-GFP,tub-Gal80^ts; UAS-luc2. For the chemical screens the following cross was performed to create Raf-1^gof intestinal tumors marked with GFP and luciferase: UAS-Raf-1^gof X esg-Gal4,UAS-GFP,tub-Gal80^ts; UAS-luc2. […]

JNK signaling = assay: puc-LacZ reporter for JNK signaling in wild-type guts; type: in vivo, Drosophila; conditions: EC cells
Description: (§3) Flies were treated with DMSO alone as a control. […].
(§4) For example, subjecting the fly intestine to the detergent dextran sulfate sodium (DSS) or to pathogen infection, induces ECs to activate the JNK stress-related pathway and to express IL-6 related cytokines (Unpaireds/Upds) (Jiang et al., 2009; Buchon et al., 2009; Apidianakis et al., 2009). The Upds activate JAK-STAT signaling in the ISCs, driving them to overproliferate. To determine if these same pathways are activated in response to FDA anti-cancer drugs, the puc-lacZ reporter was used to monitor JNK signaling, and a Gal-4 enhancer trap to monitor expression of Upd-3, the Upd cytokine preferentially expressed in the gut in response to injury (Jiang et al., 2009).

JAK-STAT signaling = assay: upd3-GFP reporter for JAK-STAT signaling in wild-type guts; type: in vivo, Drosophila; conditions: EC cells
Description: as §3, §4

Raf-1^gof tumor cells = assay: esg-Gal4 luciferase assay in whole-fly lysates of control and drug-treated flies (validation and replicate assays); type: in vivo, Drosophila
Description: as §1, §2
Flies were anesthetized and transferred in pools of 3 to 96-well plates containing 100 μL of glo lysis buffer (Promega E2661) and homogenized with a multiple homogenizer (Burkard Scientific BS00253) for 3-5 minutes. The plates were then centrifuged for 5 minutes at 4,000 rpm, and the lysates were then transferred to new 96-well “master” plates. Firefly luciferase assays were conducted with 20 μL of lysate as specified by Promega. Luminescence was counted using the Molecular Devices Analyst GT plate reader.
To exploit the TSC model for in vivo chemical screens, a high-throughput method was developed to track tumor growth, using a luciferase reporter assay instead of the conventional method of visualizing tumors with GFP. […] The esg-Gal4 driver was employed to express luciferase in the TSCs and the effects of various compounds were compared by measuring luciferase in homogenates of control and drug-treated flies.

[3] = esg-GFP in dissected guts, DMSO control
[4] = Table 3 summary of hits, Screen ICCB
[5] = assessed three days later, averaged from multiple wells

| Compound | Fold [1, 4] [fold] | Log2 (fold) (luciferase activity, log2 of the fold difference relative to DMSO controls) ([1]; assessed three days later) | Fold (luciferase activity, fold difference relative to DMSO controls) [1, 5] | Avg (3 + 6) [2] [fold] | Log2 (fold) [2] | Day 3 Fold [2] [fold] | Day 6 Fold [2] [fold] | expression of puc-lacZ reporter (JNK signaling) (JNK signaling) | expression of upd3-GFP / Upd-3 reporter (JAK-STAT signaling) (JAK-STAT signaling) | further results |
| --- | --- | --- | --- | --- | --- | --- | --- | --- | --- | --- |
| Nc1ncnc2c1c(I)cn2[C@@H]1O[C@H](CO)[C@@H](O)[C@H]1O [5-iodotubercidin, reference compound] | 0.530 | −0.917 | 0.530 | – | – | – | – | – | – | effect on Raf-1^gof tumor cells / tumor growth (Raf-1^gof TSCs; [3]): reduced tumor growth |
| CC(C)C[C@H](NC(=O)[C@H](Cc1ccccc1)NC(=O)c1cnccn1)B(O)O [Bortezomib] | – | – | – | 0.607 | −2.013 | 0.248 | 0.967 | inducing expression of puc-lacZ; also recorded: induced expression of both the JNK puc-lacZ reporter and the Upd-3 reporter | inducing expression of puc-lacZ (red, upper panel) and upd3-GFP; also recorded: induced expression of both the JNK puc-lacZ reporter and the Upd-3 reporter | expansion of ISCs/EBs in hop^msv1 animals (ISCs/EBs): less severe |
| C[C@H](NC(=O)Cc1cc(F)cc(F)c1)C(=O)N[C@H]1N=C(c2ccccc2)c2ccccc2N(C)C1=O [Compound E, reference compound] | 2.696 | – | – | – | – | – | – | – | – | effect on luciferase activity (Raf-1^gof tumor cells; whole-animal extracts vs DMSO controls): augmented tumor growth and luciferase activity; effect on Raf-1^gof tumor cells / tumor growth (Raf-1^gof TSCs; [3]): augmented tumor growth; also recorded: increased tumor growth; also recorded: dramatic expansion of the tumor; Log2 (fold) of luciferase activity relative to DMSO controls ([1]; ICCB compounds fed in vials to flies with one-day old Raf-1^gof tumors, assessed three days later): 1.431; Fold (luciferase activity relative to DMSO controls) ([1]; ICCB compounds fed in vials to flies with one-day old Raf-1^gof tumors, assessed three days later, averaged from multiple wells): 2.696 fold; Log2 (fold) [1, 4]: 1.431 |
| CN(Cc1cnc2nc(N)nc(N)c2n1)c1ccc(C(=O)N[C@@H](CCC(=O)O)C(=O)O)cc1 [Methotrexate] | 0.160 | −2.648 | 0.160 | 0.094 | −3.231 | 0.107 | 0.081 | no effect on the expression of any of the reporters | no effect on the expression of any of the reporters | expression of puc-lacZ reporter (JNK signaling) (JNK signaling; listed as methotrexate): expressed neither reporter; expression of upd3-GFP / Upd-3 reporter (JAK-STAT signaling) (JAK-STAT signaling; listed as methotrexate): expressed neither reporter |
| CC(=O)O[C@H]1C(=O)[C@@]2(C)[C@H]([C@H](OC(=O)c3ccccc3)[C@]3(O)C[C@H](OC(=O)[C@H](O)[C@@H](NC(=O)c4ccccc4)c4ccccc4)C(C)=C1C3(C)C)[C@]1(OC(C)=O)CO[C@@H]1C[C@@H]2O [Paclitaxel] | 0.274 | −1.870 | 0.274 | 0.695 | −1.808 | 0.285 | 1.104 | inducing expression of puc-lacZ; also recorded: induced expression of both the JNK puc-lacZ reporter and the Upd-3 reporter | inducing expression of puc-lacZ (red, upper panel) and upd3-GFP; also recorded: induced expression of both the JNK puc-lacZ reporter and the Upd-3 reporter | expansion of ISCs/EBs in hop^msv1 animals (ISCs/EBs): less severe |
| CO[C@H]1C[C@@H]2CC[C@@H](C)[C@@](O)(O2)C(=O)C(=O)N2CCCC[C@H]2C(=O)O[C@H]([C@H](C)C[C@@H]2CC[C@@H](O)[C@H](OC)C2)CC(=O)[C@H](C)/C=C(\C)[C@@H](O)[C@@H](OC)C(=O)[C@H](C)C[C@H](C)/C=C/C=C/C=C/1C [Rapamycin] | 0.429 | −1.220 | 0.429 | 0.369 | −1.216 | 0.431 | 0.308 | – | – | – |
| O=C1CCC(N2C(=O)c3ccccc3C2=O)C(=O)N1 (centres unmarked) [Thalidomide] | – | −0.252 | 0.839 | 1.008 | 0.136 | 1.099 | 0.918 | – | – | – |
| CC[C@]1(O)C[C@@H]2CN(CCc3c([nH]c4ccccc34)[C@@](C(=O)OC)(c3cc4c(cc3OC)N(C)[C@H]3[C@@](O)(C(=O)OC)[C@H](OC(C)=O)[C@]5(CC)C=CCN6CC[C@]43[C@@H]65)C2)C1 [Vinblastine sulfate] | 0.204 | −2.290 | 0.204 | 0.158 | −2.445 | 0.184 | 0.131 | – | – | – |
| COc1cc2c(c(OC)c1OC)-c1ccc(OC)c(=O)cc1[C@@H](NC(C)=O)CC2 [colchicine] | – | – | – | – | – | – | – | – | – | effect on luciferase activity (Raf-1^gof tumor cells; in vivo): steep drop in luciferase activity; loss of luciferase activity (Raf-1^gof tumor cells; in vivo): about 80%; effect on Raf-1^gof tumor cells / tumor growth (Raf-1^gof TSCs; in vivo): eliminated virtually all of the tumor cells; also recorded: eliminates virtually all of the Raf-1^gof tumor cells; also recorded: virtually all of the tumor cells were lost |
| Bleomycin | – | – | – | 0.521 | 0.060 | 1.043 | 0.000 | induced JNK and JAK-STAT signaling | induced JNK and JAK-STAT signaling | effect on Delta positive TSCs (Raf-1^gof TSCs; Delta staining of dissected guts): failed to block TSCs |

Source: patent US20130096067A1, “DROSOPHILA TUMOR STEM CELL MODEL AND USES THEREOF” (priority 2011, published 2013)
